Source: patent publication US20040043083A1, “Anticancer composition comprising sesquiterpenes isolated from resina ferulae” (priority 2000, published 2004)
≈ marks a conversion by molar mass, not a printed value.

Tests used:
Assay type in all cases: cell-based
[1] = system: SK-MEL-2 (human melanoma cancer cell line); experiment: Inhibition of human cancer cell line proliferation (SRB method), SK-MEL-2; settings: SK-MEL-2 cells, 48 hours
Experimental: (§1) A549 (human lung cancer cell line), SK-OV-3 (human ovary cancer cell line), SK-MEL-2 ([…] melanoma cancer cell line), XF498 (Human CNS cancer cell line) and HCT-15 (human colic cancer cell line) were obtained from NCI of U.S. A. and subjected to subculture. The inhibition of the cancer cell line proliferation was determined by the SRB (sulforhodamine B) method in accordance with the procedure described by Skehan, P. et al. (J. Nat'l. Canc. Inst., 82, p1107, 1990) as follows.
(§2) 1) Each of the subcultured cancer cell lines was collected from the surface of the culture vessel, treated with a trypsin-CDTA solution, diluted, and added to each wall of a 96-well plat bottom microplate (Falcon Co.) in an amount of 5×10^3 (A549, HCT-15), 1×10^4 (SK-MEL-2, XF498) or 2×10^4 (SK-OV-3) cells/well, followed by incubation in a CO2 incubator to anchor the cells to the bottom surface. Then the culture medium was removed from the plate with suction, a solution containing a predetermined amount of a test sample (test solution) dissolved in culture medium was added to each well; and the mixture was futher cultured for 48 hours.
(§3) 2) Thereafter, the culture medium was removed from the plate with suction, and […] of 10% TCA (trichloro acetic acid) was added to each well. The plate was allowed to stand at room temperature for one hour to fix the cells, and was washed several times with distilled water to completely remove excess TCA and then dried.
(§4) 3) Each well was treated with 100 μl of an SRB staining solution (0.4% suforhodamine in 1% acetic acid) for 30 minutes, washed several times with 1% acetic acid to remove the remaining staining solution, and dried at room temperature.
(§5) 4) After adding 100 μl of 10 mM Trisma base solution (unbuffered) to each well, the plate was shaken with a titer plate shaker for 10 minutes to elute the staining solution from the cells, and the absorbance thereof at 520 nm was determined with a microplate reader.
(§6) 5) The degree of cancer cell proliferation (% cell growth, i.e., reverse of anticancer activity) of the cell line treated with the test solution was calculated by the following numerical formula wherein C is the number of cells in a control group treated with a culture medium instead of the test solution; Tz, the number of cells at time zero; and T, the number of cells treated with the test solution calculated based on measurement. Numerical formula 1 was used when Tz>T, numerical formula 2, when Tz<T.
(§7) Numerical formula 1=[(T−Tz)/(C−Tz)]×100
(§8) Numerical formula 2=[(T−Tz)/Tz]×100
(§9) 6) The amount of the samples needed for achieving 50% inhibition of the inhibiting cancer cell proliferation (ED50) was calculated from the observed degree of cell proliferation at various concentrations of the sample using the data regression of LOTUS program.

[2] = system: A549 (human lung cancer cell line); experiment: Inhibition of human cancer cell line proliferation (SRB method), A549; settings: A549 cells, 48 hours
Experimental: as §1, §2, §3, §4, §5, §6, §7, §8, §9

[3] = system: HCT-15 (human colic cancer cell line); experiment: Inhibition of human cancer cell line proliferation (SRB method), HCT-15; settings: HCT-15 cells, 48 hours
Experimental: as §1, §2, §3, §4, §5, §6, §7, §8, §9

[4] = system: XF498 (human CNS cancer cell line); experiment: Inhibition of human cancer cell line proliferation (SRB method), XF498; settings: XF498 cells, 48 hours
Experimental: as §1, §2, §3, §4, §5, §6, §7, §8, §9

[5] = system: SK-OV-3 (human ovary cancer cell line); experiment: Inhibition of human cancer cell line proliferation (SRB method), SK-OV-3; settings: SK-OV-3 cells, 48 hours
Experimental: as §1, §2, §3, §4, §5, §6, §7, §8, §9

Row | SMILES | ED50 SK-MEL-2 [1] [µg/mL] | ED50 A549 [2] [µg/mL] | ED50 HCT-15 [3] [µg/mL] | ED50 XF498 [4] [µg/mL] | ED50 SK-OV-3 [5] [µg/mL]
1 | CC(C)=C1CCC(C)C(C)(COc2ccc3ccc(=O)oc3c2)C1CCC(=O)O (stereo not drawn) [Compound 1, galbanic acid] | 12.3 (≈ 30.9 µM) | 8.9 (≈ 22.3 µM) | 9.7 (≈ 24.3 µM) | 13.0 (≈ 32.6 µM) | 14.5 (≈ 36.4 µM)
2 | C=C1CC[C@@H](O)C(C)(C)C1CC/C(C)=C/COc1ccc2ccc(=O)oc2c1 (stereo partly drawn) [Compound 4, farnesiferol B] | 7.1 (≈ 18.6 µM) | 7.2 (≈ 18.8 µM) | 4.3 (≈ 11.2 µM) | 7.1 (≈ 18.6 µM) | 10.0 (≈ 26.1 µM)
3 | CC(C)=CCC/C(C)=C/CC/C(C)=C/COc1ccc2ccc(=O)oc2c1 [Compound 3, umbelliprenin] | 6.7 (≈ 18.3 µM) | 8.9 (≈ 24.3 µM) | 4.1 (≈ 11.2 µM) | 5.3 (≈ 14.5 µM) | 9.4 (≈ 25.6 µM)
4 | N.N.[Cl][Pt][Cl] [Cisplastine, reference compound] | 1.2 | 1.8 | 3.2 | 1.4 | 1.5
5 | C/C(=C\COc1ccc2ccc(=O)oc2c1)CC[C@@H]1C(C)(C)[C@H]2CC[C@]1(C)O2 [Compound 5, farnesiferol C] | 3.9 (≈ 10.2 µM) | 4.2 (≈ 11 µM) | 4.3 (≈ 11.2 µM) | 5.4 (≈ 14.1 µM) | 7.2 (≈ 18.8 µM)
6 | C/C(=C\COc1ccc2ccc(=O)oc2c1)CC/C=C(\C)CCC(O)C(C)(C)O (stereo not drawn) [Compound 2, karatavicinol] | 5.7 (≈ 14.2 µM) | 5.6 (≈ 14 µM) | 7.0 (≈ 17.5 µM) | 7.5 (≈ 18.7 µM) | 11.6 (≈ 29 µM)
